The subject of this test is RAW264.7. The experiment in a line: Anti-inflammatory activity in Mus musculus (mouse) RAW264.7 cells assessed as inhibition of PMA-induced macrophages respiratory burst measured up to 30 min by chemiluminescence method. The format is functional, cell-based. The conditions noted are these: RAW264.7, 0.5 h.

IC50 data for eight compounds are collected here from ChEMBL document CHEMBL3045908, “Phenolic and iridoid glycosides from the rhizomes of Cyperus rotundus L” (Med Chem Res, 2013).

Broadly, the IC50 is the midpoint of a concentration-inhibition curve. In the case of `COC(=O)C1=CO[C@@H](O[C@@H]2O[C@H](CO[C@@H]3O[C@H](COC(=O)/C=C/c4ccc(O)cc4)[C@@H](O)[C@H](O)[C@H]3O)[C@@H](O)[C@H](O)[C@H]2O)[C@@H]2C(CO)=CC[C@H]12` [6'-O-P-COUMAROYLGENIPIN GENTIOBIOSIDE], the IC50 is 78.7 µM.

Regarding `COC(=O)C1=CO[C@@H](O[C@@H]2O[C@H](CO)[C@@H](O)[C@H](O)[C@H]2O)[C@@H]2C(CO)=C[C@@H](OC[C@H]3O[C@@H](O[C@@H]4OC=C(C(=O)OC)[C@H]5C=C[C@](O)(CO)[C@@H]45)[C@H](O)[C@@H](O)[C@@H]3O)[C@H]12` [ROTUNDUSIDE A], the 50% inhibitory concentration (IC50) worked out at 217 µM.

As for `COC(=O)C1=CO[C@@H](O[C@@H]2O[C@H](CO[C@@H]3O[C@H](COC(=O)/C=C/c4cc(O)c(O)c(O)c4)[C@@H](O)[C@H](O)[C@H]3O)[C@@H](O)[C@H](O)[C@H]2O)[C@@H]2C(CO)=CC[C@H]12` [ROTUNDUSIDE B], the IC50 is 31.1 µM.

Regarding `C[C@@H]1C[C@H]2[C@@H]3CCC4=CC(=O)C=C[C@]4(C)[C@@]3(F)[C@@H](O)C[C@]2(C)[C@@]1(O)C(=O)CO` [DEXAMETHASONE], the IC50 amounted to 355 µM.

On to `COc1cc(/C=C/C(=O)O[C@H]2[C@H](O[C@@H]3O[C@H](CO)[C@@H](O)[C@H](O)[C@H]3O)[C@@H](O[C@@H]3OC[C@H](O)[C@H](O)[C@H]3O)[C@H](OCCc3ccc(O)c(O)c3)O[C@@H]2CO[C@@H]2OC[C@H](O)[C@@H](O)[C@@H]2O)ccc1O` [HELIOSIDE C], for which the IC50 was found to be 320 µM.

Regarding `C[C@@H]1O[C@@H](OC[C@H]2O[C@@H](Oc3c(-c4ccc(O)c(O)c4)oc4cc(O)cc(O)c4c3=O)[C@H](O)[C@@H](O)[C@@H]2O)[C@H](O)[C@H](O)[C@H]1O` [RUTIN], the IC50 came out at 15.1 µM.

`COc1cc(/C=C/C(=O)O[C@H]2[C@H](O[C@@H]3O[C@H](CO)[C@@H](O)[C@H](O)[C@H]3O)[C@@H](O[C@@H]3OC[C@H](O)[C@H](O)[C@H]3O)[C@H](OCCc3ccc(O)c(O)c3)O[C@@H]2CO)ccc1O` [CHIONOSIDE A]: the concentration for half-maximal inhibition (IC50) is 336 µM.

For the compound `O=C(/C=C/c1ccc(O)cc1)OC[C@H]1O[C@@H](OCCc2ccc(O)c(O)c2)[C@H](O[C@@H]2OC[C@H](O)[C@H](O)[C@H]2O)[C@@H](O[C@@H]2O[C@H](CO)[C@@H](O)[C@H](O)[C@H]2O)[C@@H]1O` [ISOARAGOSIDE], the IC50 is 308 µM.
